Source: patent US9107940B2, “Compositions and methods for treating and preventing skeletal muscle deficiencies” (The Regents of the University of Michigan, priority 2007, dated 2015)

Columns and labels:
[1] = system: mdx lumbrical (LMB) muscles; assay: Isometric contraction protocol (20 contractions) inducing force deficit in isolated lumbrical muscles in vitro; parameters: species or system mouse
Source text: Specific-pathogen-free male mdx mice (C57BL/10ScSn-mdx stock #001801) 2-3 months of age and wild type (WT) C57BL/10 mice 2-5 months of age were obtained from the Jackson Laboratory (Bar Harbor, Me.). Mice were housed in a specific-pathogen-free barrier facility. All experimental procedures were in accordance with the Guide for the Care and Use of Laboratory Animals [DHHS Publication No. 85-23 (NIH), Revised 1985, Office of Science and Health Reports, Bethesda, Md. 20892].
Mice were anesthetized with an intraperitoneal injection of Avertin (tribromoethanol 400 mg/kg). Supplemental doses of Avertin were administered as required to keep the mouse unresponsive to tactile stimuli. The front paws of the mouse were severed and the LMB muscles dissected free from the second digit. The LMB muscles were selected for their extremely small size that ensured all fibres were accessible to externally applied compounds. Based on physical dimensions, LMB muscle mass was estimated to be approximately 0.7 mg. Dissections were performed in a chilled bathing solution, composition in mM: 137 NaCl, 11.9 NaHCO3, 5.0 KCl, 1.8 CaCl2, 0.5 MgCl2, 0.4 NaH2PO4. The isolated LMB muscle was mounted horizontally in a custom-fabricated chamber with the distal tendon attached to a force transducer (Aurora Scientific, Inc., modified Model 400A) and the proximal tendon attached to a servomotor (Aurora Scientific, Inc., Model 318B) by ties composed of 10-0 monofilament nylon suture. Bath temperature was maintained at 25° C. and the chamber was perfused continuously with Tyrode solution (composition in mM: 121 NaCl, 24 NaHCO3, 5.0 KCl, 1.8 CaCl2, 0.5 MgCl2, 0.4 NaH2PO4) maintained at pH 7.3 by bubbling with a 95%/5% O2/CO2 mixture.
Muscles were stimulated electrically by current passed between two platinum electrodes. […] Optimum length (Lo) of the muscle was determined by adjusting its length until maximum twitch force was attained. […]
Data are presented as a mean value±SE. […] When ANOVA was used and significance detected, the Student-Newman-Keuls post hoc comparison was used to assess pairwise differences.

WT muscles = settings: P188 1 mM or streptomycin 200 μM
Experimental: LMB muscles from WT mice, termed WT muscles, were divided into two groups. One group was exposed to normal Tyrode solution and the other group to a calcium-free Tyrode solution. […] For all treatments, muscles were allowed to incubate in the chamber for 15 minutes prior to commencement of the contraction protocol. […] For calcium-free experiments, CaCl2 was omitted from the Tyrode solution and MgCl2 was increased to 2.3 mM to maintain the concentration of divalent ions.

[H]/N=C(/N)N[C@H]1[C@H](O)[C@@H](O)[C@H](O[C@@H]2O[C@@H](C)[C@](O)(C=O)[C@H]2O[C@@H]2O[C@@H](CO)[C@H](O)[C@@H](O)[C@@H]2NC)[C@@H](N/C(N)=N\[H])[C@@H]1O [streptomycin]
influence on absolute Po ([1]; mdx LMB muscles, P188 1 mM, streptomycin 200 μM): did not influence | force generated at the end of the contraction protocol (post-protocol normalized Po) ([1]; mdx LMB muscles, P188 1 mM, streptomycin 200 μM in Tyrode, 15 min incubation, untreated mdx 69% of Po): 84 % of Po | contraction-induced force deficit (effect in words) ([1]; whole mdx skeletal muscle): equally effective in reducing the contraction-induced force deficit | toxicity to the muscle (WT muscles): not toxic
